From paper PMC6934184, “Selective DNA-PKcs inhibition extends the therapeutic index of localized radiotherapy and chemotherapy” (The Journal of Clinical Investigation, 2019) come the findings set out here.

The target in the test is T1, ERBB2 (HER2) (Homo sapiens, UniProt P04626).
T1 construct: purchased Thermo Fisher Scientific (Life Technologies) SelectScreen
Description: SelectScreen Z'LYTE. It is filed as biochemical. The procedure, abridged: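 Percent values come from Thermo SelectScreen profiling of NU5455, combining activity and binding assays. CSF1R was run in Z'LYTE format at Km app ATP, and CAMK1 in Adapta format with ATP listed at 10.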

Structures are written as SMILES.

T1 sequence (P04626 23-1255): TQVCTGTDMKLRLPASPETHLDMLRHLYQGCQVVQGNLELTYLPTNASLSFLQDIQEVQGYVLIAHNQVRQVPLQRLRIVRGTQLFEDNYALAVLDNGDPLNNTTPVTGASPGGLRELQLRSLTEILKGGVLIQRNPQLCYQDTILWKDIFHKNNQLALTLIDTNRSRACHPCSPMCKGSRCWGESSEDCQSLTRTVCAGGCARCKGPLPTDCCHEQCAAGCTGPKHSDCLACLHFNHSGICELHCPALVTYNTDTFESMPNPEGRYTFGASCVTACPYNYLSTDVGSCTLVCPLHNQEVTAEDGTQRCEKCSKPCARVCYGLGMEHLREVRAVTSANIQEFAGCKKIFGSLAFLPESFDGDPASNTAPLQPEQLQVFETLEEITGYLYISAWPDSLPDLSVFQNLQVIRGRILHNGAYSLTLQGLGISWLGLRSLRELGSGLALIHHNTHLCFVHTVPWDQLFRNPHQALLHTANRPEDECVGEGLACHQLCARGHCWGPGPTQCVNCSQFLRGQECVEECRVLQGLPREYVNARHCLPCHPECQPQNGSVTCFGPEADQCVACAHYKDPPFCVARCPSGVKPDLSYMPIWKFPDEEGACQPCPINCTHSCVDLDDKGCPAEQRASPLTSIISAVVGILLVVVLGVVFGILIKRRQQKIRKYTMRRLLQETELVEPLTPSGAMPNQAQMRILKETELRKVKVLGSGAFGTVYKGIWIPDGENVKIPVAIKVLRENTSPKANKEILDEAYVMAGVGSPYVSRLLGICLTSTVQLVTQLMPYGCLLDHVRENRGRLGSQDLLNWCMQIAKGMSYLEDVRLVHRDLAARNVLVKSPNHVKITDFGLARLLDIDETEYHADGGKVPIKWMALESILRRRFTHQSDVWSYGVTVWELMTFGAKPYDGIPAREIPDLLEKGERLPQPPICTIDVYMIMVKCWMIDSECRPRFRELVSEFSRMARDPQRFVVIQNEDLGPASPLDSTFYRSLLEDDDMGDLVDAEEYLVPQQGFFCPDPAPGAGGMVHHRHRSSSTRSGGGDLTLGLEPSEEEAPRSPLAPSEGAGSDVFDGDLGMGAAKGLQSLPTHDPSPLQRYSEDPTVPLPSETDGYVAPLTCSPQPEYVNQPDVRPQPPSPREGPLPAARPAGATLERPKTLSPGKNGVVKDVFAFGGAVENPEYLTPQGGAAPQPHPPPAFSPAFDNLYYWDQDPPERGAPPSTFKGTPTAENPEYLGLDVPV

The compound `CN(C(=O)CN1CCOCC1)c1ccc2sc3c(-c4cccc5c(=O)cc(N6CC7CCC(C6)O7)oc45)cccc3c2c1` [NU5455] had an inhibition at 1 µM of 5.6%.

For orientation: inhibition means the change of the read-out against control, counted positive when it falls. Lower therefore signals a response near the control.
